Assays:
[1] = Highest frequency of moderate liver toxicity observed during clinical trials, expressed as a percentage. [column '% BIOL' in source]; conditions: human
[2] = Highest frequency of acute liver toxicity observed during clinical trials, expressed as a percentage. [column '% AIGUE' in source]; conditions: human
[3] = Comments (NB not yet translated). [column 'COMMENTAIRES' in source]; conditions: human
[4] = Times to onset, minimal and maximal, observed in the indexed observations. [column 'DELAI' in source]; conditions: human
[5] = human, serum
[6] = human, serum; remark: listed apart in the source
[7] = human
[8] = human; remark: listed apart in the source
[9] = human; remark: listed apart in the source
[10] = human, serum, 4383 h
[11] = human; remark: listed apart in the source
[12] = human; remark: listed apart in the source
[13] = human; remark: listed apart in the source
[14] = human; remark: listed apart in the source
[15] = human; remark: listed apart in the source
[16] = human; remark: listed apart in the source
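Throughout, for Hepatotoxicity (association with vascular disease): count of indexed literature references reporting vascular liver injury in humans, e.g. peliosis hepatitis, hepatic veno-occlusive disease or Budd-Chiari syndrome.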
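Throughout, for Hepatotoxicity (benign tumour): value is a count of indexed literature references citing a benign tumour confirmed by histopathology.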
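Throughout, for Hepatotoxicity (choleostasis): human cholestatic liver injury, shown by histopathology or by peak ALT or AST elevation over alkaline phosphatase ratio below 2, value counts indexed literature reports.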
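Throughout, for Hepatotoxicity (chronic liver disease): chronic liver injury confirmed by histopathology or persistently raised serum aminotransferase activity beyond 6 months, value given as the count of indexed literature references.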
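Throughout, for Hepatotoxicity (cirrhosis): value is a count of indexed literature references reporting cirrhosis confirmed by histopathology.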
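Throughout, for Hepatotoxicity (cytolytic): human cytolytic liver injury, shown by histopathology or by a ratio above 5 of peak ALT or AST elevation to alkaline phosphatase elevation, value counts indexed references.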
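Throughout, for Hepatotoxicity (granulomatous hepatitis): value is a count of indexed literature references reporting granulomatous liver disease confirmed by histopathology.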
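Throughout, for Hepatotoxicity (malignant tumour): malignant tumour confirmed by histopathology, value gives the count of indexed literature references reporting it.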
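Throughout, for Hepatotoxicity (severe hepatitis): human clinical data: severe hepatitis, meaning potentially life-threatening liver failure or clinically observed cases, the value counts how many indexed literature references report it.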
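Throughout, for Hepatotoxicity (steatosis): steatosis confirmed by histopathology, value is the count of indexed references.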

Row | SMILES | Hepatotoxicity (moderate) [1] [%] | Hepatotoxicity (acute) [2] [%] | Hepatotoxicity (comment) [3] | Hepatotoxicity (time to onset) [4] | Hepatotoxicity (moderate) [5] | Hepatotoxicity (acute) [6] | Hepatotoxicity (cytolytic) [7] | Hepatotoxicity (choleostasis) [8] | Hepatotoxicity (severe hepatitis) [9] | Hepatotoxicity (chronic liver disease) [10] | Hepatotoxicity (cirrhosis) [11] | Hepatotoxicity (granulomatous hepatitis) [12] | Hepatotoxicity (association with vascular disease) [13] | Hepatotoxicity (steatosis) [14] | Hepatotoxicity (malignant tumour) [15] | Hepatotoxicity (benign tumour) [16] | Hepatotoxicity (moderate) ([1]; Liver) [%] | Hepatotoxicity (acute) ([2]; Liver) [%] | Hepatotoxicity (severe hepatitis) ([9]; Liver)
1 | O=c1cc(Cc2ccccc2)[nH]c(=S)[nH]1 [BENZYLTHIOURACIL] | 0 | 0 | RC/CARBIMAZOLE | 1 month - 2 months | 1 | 1 | 0 | 1 | 0 | 0 | 0 | 0 | 0 | 0 | 0 | 0 | – | – | –
2 | CC(C)(Oc1ccc(CCNC(=O)c2ccc(Cl)cc2)cc1)C(=O)O [BEZAFIBRATE] | 10 | 0 | I/PERHEXILINE | 3 weeks - 3 months | 5 | 2 | 1 | 0 | 1 | 0 | 0 | 0 | 0 | 0 | 0 | 0 | – | – | –
3 | Nc1c(CC(=O)O)cccc1C(=O)c1ccc(Br)cc1 [BROMFENAC] | 0 | 0 | AC_ANTI-N | 2 weeks - 8 months | 0 | 7 | 7 | 0 | 7 | 0 | 0 | 0 | 0 | 0 | 0 | 0 | – | – | –
4 | CS(=O)(=O)OCCCCOS(C)(=O)=O [BUSULFAN] | 100 | 6.7 | HNR(I/THIOGUANINE) MVO | 2 days - 6 years | 11 | 6 | 3 | 3 | 4 | 0 | 1 | 0 | 42 | 0 | 0 | 0 | – | – | –
5 | CCN1CCN(C(=O)N[C@@H](C(=O)N[C@@H]2C(=O)N3C(C(=O)O)=C(CSc4nnnn4C)CS[C@H]23)c2ccc(O)cc2)C(=O)C1=O [CEFOPERAZONE] | – | – | CHOLANGITE | 23 days | 15 | 0 | 0 | 0 | – | 0 | 0 | 0 | 0 | 0 | 0 | 0 | 20 | 0 | 1
6 | NS(=O)(=O)c1cc2c(cc1Cl)N=CNS2(=O)=O [CHLOROTHIAZIDE] | 0 | 0 | #CBP | 2 weeks - 2 years | 0 | 5 | 0 | 5 | 1 | 0 | 1 | 0 | 0 | 0 | 0 | 0 | – | – | –
7 | c1ccc(C2(c3ccccc3)CC2C2=NCCN2)cc1 (stereo not given) [CIFENLINE] | 4.1 | 0 | CHOLANGITE | 47 days - 5.5 months | 2 | 2 | 2 | 0 | 0 | 0 | 0 | 0 | 0 | 0 | 0 | 0 | – | – | –
8 | CC(C)(Oc1ccc(C2CC2(Cl)Cl)cc1)C(=O)O (stereo not given) [CIPROFIBRATE] | 7.7 | 0 | AC_ANTI-N | 24 days - 15 months | 7 | 3 | 2 | 1 | 1 | 1 | 1 | 0 | 0 | 0 | 0 | 0 | – | – | –
9 | O=C(O)C1N=C(c2ccccc2)c2cc(Cl)ccc2NC1=O (stereo not given) [CLORAZEPIC ACID] | 0 | 0 | CHOLESTASE_PROLONGEE | 2 months - 3 months | 0 | 3 | 2 | 3 | 0 | 0 | 0 | 0 | 0 | 0 | 0 | 0 | – | – | –
10 | O=C(O)c1cc(=O)c2c(OCC(O)COc3cccc4oc(C(=O)O)cc(=O)c34)cccc2o1 [CROMOLYN] | 16.7 | 0 | #CBP | 4 months - 10 months | 1 | 0 | 0 | 0 | 0 | 0 | 1 | 1 | 0 | 0 | 0 | 0 | – | – | –
